Assay results reported in ChEMBL document CHEMBL3217551, “A concise synthesis of the potent inflammatory mediator 5-oxo-ETE” (Medchemcomm, 2012).

Legend:
Oxoeicosanoid receptor 1 = Oxoeicosanoid receptor 1 (Homo sapiens, UniProt Q8TDS5); test: Agonist activity at OXE receptor (unknown origin) expressed in HEK293 cells co-expressing Galpha subunit G16 assessed as calcium mobilization using Oregon Green 488 BAPTA-1/AM by fluorescence assay; format: functional, cell-based
[1] = Stability of the compound after 48 hrs by NMR spectroscopy; format: physicochemical
[2] = Stability of the compound after 36 hrs by NMR spectroscopy; format: physicochemical
[3] = Stability of the compound in DMSO-d6 at room temperature after 4 to 21 days by NMR spectroscopy in presence of CDCl3; format: ADME
[4] = Stability of the compound at room temperature after 19 days by NMR spectroscopy in presence of CDCl3; format: ADME; conditions: 456 h

Sequence of Oxoeicosanoid receptor 1 (Q8TDS5 whole entry): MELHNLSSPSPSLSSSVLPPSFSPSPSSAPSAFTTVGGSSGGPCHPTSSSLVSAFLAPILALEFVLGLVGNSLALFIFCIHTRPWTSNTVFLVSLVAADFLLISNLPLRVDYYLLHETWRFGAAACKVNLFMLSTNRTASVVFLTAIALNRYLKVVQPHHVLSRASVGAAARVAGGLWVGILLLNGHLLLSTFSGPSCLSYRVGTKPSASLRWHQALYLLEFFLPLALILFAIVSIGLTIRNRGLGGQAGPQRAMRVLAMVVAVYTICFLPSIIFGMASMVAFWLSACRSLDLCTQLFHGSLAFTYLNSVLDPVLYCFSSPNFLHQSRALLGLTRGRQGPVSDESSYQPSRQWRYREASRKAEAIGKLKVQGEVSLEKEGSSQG

CCCCC/C=C\C/C=C\C/C=C\C=C\C(=O)CCCC(=O)O [5-OXO-ETE]
EC50 (Oxoeicosanoid receptor 1): 67 nM
Stability [1]: Unstable
Stability [2]: Stable
Stability [3]: Stable
Stability [4]: Stable
